Laboratory results reported in patent US7985410B2, “Method or agent for inhibiting the function of efflux pump Pseudomonas aeruginosa” (Tokai University, priority 2006, dated 2011).
In brackets after ≈: the same amount, converted by molar mass. Read-outs that look alike come from different tables or passages of the source.

Legend:
Assay type in all cases: cell-based
[1] = test system: Pseudomonas aeruginosa lacking OprM, plasmid with OprM (L313C); assay: Drug sensitivity (MIC), OprM (L313C)
Method: (§1) Mutant protein was prepared in which 20 amino acid residues were replaced by cysteine residues, respectively, in E1 and E2 domains of the amino acid sequence of mature OprM protein as above. First, OprM gene was introduced into pUCP20 as a vector. This vector is a shuttle vector which works in Escherichia coli and Pseudomonas aeruginosa. Specific mutation was introduced to OprM gene by using regular mutation introducing kit, and resultant vector was transformed into E. coli. The resultant E. coli was cultured to prepare plasmid, and the sequence of the plasmid was determined to confirm that the mutation was successfully introduced.
(§2) Next, the plasmid was introduced into the Pseudomonas aeruginosa lacking OprM, and the drug sensitivity of the resultant bacteria was determined to evaluate the pump function thereof. Drug sensitivity might be enhanced if the function of the pump was inhibited. Drug sensitivity was indicated by minimum inhibitory concentration (MIC). Aztreonam (AZT) (β-1 lactam antibiotic) and nalidixic acid (NA) (qunolone antibiotic) were used as drugs.

[2] = test system: Pseudomonas aeruginosa lacking OprM, plasmid with OprM (P109C); assay: Drug sensitivity (MIC), OprM (P109C); settings: for MIC: Pseudomonas aeruginosa, OprM (P109C)
Method: as §1, §2

[3] = test system: Pseudomonas aeruginosa lacking OprM, plasmid with OprM (L316C); assay: Drug sensitivity (MIC), OprM (L316C)
Method: as §1, §2

[4] = test system: Pseudomonas aeruginosa lacking OprM, plasmid with OprM (G101C); assay: Drug sensitivity (MIC), OprM (G101C)
Method: as §1, §2

[5] = test system: Pseudomonas aeruginosa lacking OprM, plasmid with OprM (wild type); assay: Drug sensitivity (MIC), OprM (wild type)
Method: as §1, §2

[6] = test system: Pseudomonas aeruginosa lacking OprM, plasmid with OprM (S314C); assay: Drug sensitivity (MIC), OprM (S314C)
Method: as §1, §2

[7] = test system: Pseudomonas aeruginosa lacking OprM, plasmid with OprM (L103C); assay: Drug sensitivity (MIC), OprM (L103C)
Method: as §1, §2

[8] = test system: Pseudomonas aeruginosa lacking OprM, plasmid with OprM (G320C); assay: Drug sensitivity (MIC), OprM (G320C)
Method: as §1, §2

[9] = test system: Pseudomonas aeruginosa lacking OprM, plasmid with OprM (G315C); assay: Drug sensitivity (MIC), OprM (G315C)
Method: as §1, §2

[10] = test system: Pseudomonas aeruginosa lacking OprM, plasmid with OprM (P100C); assay: Drug sensitivity (MIC), OprM (P100C)
Method: as §1, §2

[11] = test system: Pseudomonas aeruginosa lacking OprM, plasmid with OprM (R311C); assay: Drug sensitivity (MIC), OprM (R311C); settings: for resistance of the bacteria to the drug (in words): OprM (311C) mutant vs wild type; for MIC: Pseudomonas aeruginosa, OprM (R311C)
Method: as §1, §2

[12] = test system: Pseudomonas aeruginosa lacking OprM, plasmid with OprM (T106C); assay: Drug sensitivity (MIC), OprM (T106C)
Method: as §1, §2

[13] = test system: Pseudomonas aeruginosa lacking OprM, plasmid with OprM (F317C); assay: Drug sensitivity (MIC), OprM (F317C)
Method: as §1, §2

[14] = test system: Pseudomonas aeruginosa lacking OprM, plasmid with OprM (G107C); assay: Drug sensitivity (MIC), OprM (G107C)
Method: as §1, §2

[15] = test system: Pseudomonas aeruginosa lacking OprM, plasmid with OprM (S108C); assay: Drug sensitivity (MIC), OprM (S108C)
Method: as §1, §2

[16] = test system: Pseudomonas aeruginosa lacking OprM, plasmid with OprM (A319C); assay: Drug sensitivity (MIC), OprM (A319C)
Method: as §1, §2

[17] = test system: Pseudomonas aeruginosa lacking OprM, plasmid with OprM (D102C); assay: Drug sensitivity (MIC), OprM (D102C)
Method: as §1, §2

[18] = test system: Pseudomonas aeruginosa lacking OprM, plasmid with OprM (D318C); assay: Drug sensitivity (MIC), OprM (D318C); settings: for resistance of the bacteria to the drug (in words): OprM (D318C) mutant vs wild type; for MIC: Pseudomonas aeruginosa, OprM (D318C)
Method: as §1, §2

[19] = test system: Pseudomonas aeruginosa lacking OprM, plasmid with OprM (Q312C); assay: Drug sensitivity (MIC), OprM (Q312C)
Method: as §1, §2

[20] = test system: Pseudomonas aeruginosa lacking OprM, plasmid with OprM (T105C); assay: Drug sensitivity (MIC), OprM (T105C)
Method: as §1, §2

[21] = test system: Pseudomonas aeruginosa lacking OprM, plasmid with OprM (S104C); assay: Drug sensitivity (MIC), OprM (S104C)
Method: as §1, §2

`CCn1cc(C(=O)O)c(=O)c2ccc(C)nc21` [NA, nalidixic acid] was tested, and the MIC ([1]; read-out: MIC for NA) was 50 µg/mL (≈ 215 µM), the “drug sensitivity of the bacteria (in words)” value ([2]; OprM (P109C) mutant vs wild type) was “enhanced drug sensitivity” and the MIC ([2]; read-out: MIC for NA) was 3.13 µg/mL (≈ 13.5 µM). For the same compound, the MIC ([3]; read-out: MIC for NA) was 50 µg/mL (≈ 215 µM), the MIC ([4]; read-out: MIC for NA) was 50 µg/mL (≈ 215 µM) and the MIC ([5]; read-out: MIC for NA) was 50 µg/mL (≈ 215 µM). It also gave an MIC ([6]; read-out: MIC for NA) of 50 µg/mL (≈ 215 µM), an MIC ([7]; read-out: MIC for NA) of 50 µg/mL (≈ 215 µM) and an MIC ([8]; read-out: MIC for NA) of 50 µg/mL (≈ 215 µM). For the same compound, the MIC ([9]; read-out: MIC for NA) was 25 µg/mL (≈ 108 µM), the MIC ([10]; read-out: MIC for NA) was 50 µg/mL (≈ 215 µM) and the “resistance of the bacteria to the drug (in words)” value (“resistance of the bacteria” for short) [11] was “markedly reduced resistance”. For the same compound, the MIC ([11]; read-out: MIC for NA) was 6.25 µg/mL (≈ 26.9 µM), the MIC ([12]; read-out: MIC for NA) was 50 µg/mL (≈ 215 µM) and the MIC ([13]; read-out: MIC for NA) was 50 µg/mL (≈ 215 µM). For the same compound, the MIC ([14]; read-out: MIC for NA) was 50 µg/mL (≈ 215 µM), the MIC ([15]; read-out: MIC for NA) was 50 µg/mL (≈ 215 µM) and the MIC ([16]; read-out: MIC for NA) was 50 µg/mL (≈ 215 µM). For the same compound, the MIC ([17]; read-out: MIC for NA) was 50 µg/mL (≈ 215 µM), the “resistance of the bacteria” value [18] was “did not reduce resistance” and the MIC ([18]; read-out: MIC for NA) was 25 µg/mL (≈ 108 µM). For the same compound, the MIC ([19]; read-out: MIC for NA) was 25 µg/mL (≈ 108 µM), the MIC ([20]; read-out: MIC for NA) was 50 µg/mL (≈ 215 µM) and the MIC ([21]; read-out: MIC for NA) was 50 µg/mL (≈ 215 µM).
`C[C@H]1[C@H](NC(=O)/C(=N\OC(C)(C)C(=O)O)c2csc(N)n2)C(=O)N1S(=O)(=O)O` [AZT, aztreonam] gave an MIC ([1]; read-out: MIC for AZT) of 3.13 µg/mL (≈ 7.19 µM), an MIC ([2]; read-out: MIC for AZT) of 3.13 µg/mL (≈ 7.19 µM) and an MIC ([3]; read-out: MIC for AZT) of 3.13 µg/mL (≈ 7.19 µM). It also gave an MIC ([4]; read-out: MIC for AZT) of 3.13 µg/mL (≈ 7.19 µM), an MIC ([5]; read-out: MIC for AZT) of 3.13 µg/mL (≈ 7.19 µM) and an MIC ([6]; read-out: MIC for AZT) of 3.13 µg/mL (≈ 7.19 µM). The MIC ([7]; read-out: MIC for AZT) was 3.13 µg/mL (≈ 7.19 µM), the MIC ([8]; read-out: MIC for AZT) was 1.54 µg/mL (≈ 3.54 µM) and the MIC ([9]; read-out: MIC for AZT) was 0.78 µg/mL (≈ 1.79 µM). For the same compound, the MIC ([10]; read-out: MIC for AZT) was 3.13 µg/mL (≈ 7.19 µM), the “resistance of the bacteria” value [11] was “markedly reduced resistance” and the MIC ([11]; read-out: MIC for AZT) was 0.39 µg/mL (≈ 0.896 µM). It also gave an MIC ([12]; read-out: MIC for AZT) of 3.13 µg/mL (≈ 7.19 µM), an MIC ([13]; read-out: MIC for AZT) of 1.54 µg/mL (≈ 3.54 µM) and an MIC ([14]; read-out: MIC for AZT) of 3.13 µg/mL (≈ 7.19 µM). For the same compound, the MIC ([15]; read-out: MIC for AZT) was 3.13 µg/mL (≈ 7.19 µM), the MIC ([16]; read-out: MIC for AZT) was 1.54 µg/mL (≈ 3.54 µM) and the MIC ([17]; read-out: MIC for AZT) was 3.13 µg/mL (≈ 7.19 µM). For the same compound, the “resistance of the bacteria” value [18] was “markedly reduced resistance”, the MIC ([18]; read-out: MIC for AZT) was 0.39 µg/mL (≈ 0.896 µM) and the MIC ([19]; read-out: MIC for AZT) was 0.78 µg/mL (≈ 1.79 µM). It also gave an MIC ([20]; read-out: MIC for AZT) of 3.13 µg/mL (≈ 7.19 µM) and an MIC ([21]; read-out: MIC for AZT) of 3.13 µg/mL (≈ 7.19 µM).
